Data published in patent US12685735B2 (Foghorn Therapeutics Inc., priority 2020, dated 2026).

How the values were obtained:
BRM = BRM (Homo sapiens, UniProt P51531); assay: ATPase catalytic activity assay of BRM (ADP-Glo); assay type: biochemical; settings: for IC50: read-out: BRM IC50 (μM)*
In short: (§1)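 ADP formed by the ATPase reaction was quantified by ADP-Glo luminescence. After the reaction, unconsumed ATP was depleted (40 min, room temperature), then ADP was converted to ATP for luciferase detection (60 min, room temperature) before reading on a luminometer.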

BRG-1 = BRG-1 (Homo sapiens, UniProt P51532); assay: ATPase catalytic activity assay of BRG-1 (ADP-Glo); assay type: biochemical; settings: ATPase catalytic activity, ADP-Glo; for IC50: read-out: BRG1 IC50 (μM)*; for Emax: read-out: BRG1 Max % Inhibition
In short: as §1

Sequence of BRG-1 (P51532 whole entry): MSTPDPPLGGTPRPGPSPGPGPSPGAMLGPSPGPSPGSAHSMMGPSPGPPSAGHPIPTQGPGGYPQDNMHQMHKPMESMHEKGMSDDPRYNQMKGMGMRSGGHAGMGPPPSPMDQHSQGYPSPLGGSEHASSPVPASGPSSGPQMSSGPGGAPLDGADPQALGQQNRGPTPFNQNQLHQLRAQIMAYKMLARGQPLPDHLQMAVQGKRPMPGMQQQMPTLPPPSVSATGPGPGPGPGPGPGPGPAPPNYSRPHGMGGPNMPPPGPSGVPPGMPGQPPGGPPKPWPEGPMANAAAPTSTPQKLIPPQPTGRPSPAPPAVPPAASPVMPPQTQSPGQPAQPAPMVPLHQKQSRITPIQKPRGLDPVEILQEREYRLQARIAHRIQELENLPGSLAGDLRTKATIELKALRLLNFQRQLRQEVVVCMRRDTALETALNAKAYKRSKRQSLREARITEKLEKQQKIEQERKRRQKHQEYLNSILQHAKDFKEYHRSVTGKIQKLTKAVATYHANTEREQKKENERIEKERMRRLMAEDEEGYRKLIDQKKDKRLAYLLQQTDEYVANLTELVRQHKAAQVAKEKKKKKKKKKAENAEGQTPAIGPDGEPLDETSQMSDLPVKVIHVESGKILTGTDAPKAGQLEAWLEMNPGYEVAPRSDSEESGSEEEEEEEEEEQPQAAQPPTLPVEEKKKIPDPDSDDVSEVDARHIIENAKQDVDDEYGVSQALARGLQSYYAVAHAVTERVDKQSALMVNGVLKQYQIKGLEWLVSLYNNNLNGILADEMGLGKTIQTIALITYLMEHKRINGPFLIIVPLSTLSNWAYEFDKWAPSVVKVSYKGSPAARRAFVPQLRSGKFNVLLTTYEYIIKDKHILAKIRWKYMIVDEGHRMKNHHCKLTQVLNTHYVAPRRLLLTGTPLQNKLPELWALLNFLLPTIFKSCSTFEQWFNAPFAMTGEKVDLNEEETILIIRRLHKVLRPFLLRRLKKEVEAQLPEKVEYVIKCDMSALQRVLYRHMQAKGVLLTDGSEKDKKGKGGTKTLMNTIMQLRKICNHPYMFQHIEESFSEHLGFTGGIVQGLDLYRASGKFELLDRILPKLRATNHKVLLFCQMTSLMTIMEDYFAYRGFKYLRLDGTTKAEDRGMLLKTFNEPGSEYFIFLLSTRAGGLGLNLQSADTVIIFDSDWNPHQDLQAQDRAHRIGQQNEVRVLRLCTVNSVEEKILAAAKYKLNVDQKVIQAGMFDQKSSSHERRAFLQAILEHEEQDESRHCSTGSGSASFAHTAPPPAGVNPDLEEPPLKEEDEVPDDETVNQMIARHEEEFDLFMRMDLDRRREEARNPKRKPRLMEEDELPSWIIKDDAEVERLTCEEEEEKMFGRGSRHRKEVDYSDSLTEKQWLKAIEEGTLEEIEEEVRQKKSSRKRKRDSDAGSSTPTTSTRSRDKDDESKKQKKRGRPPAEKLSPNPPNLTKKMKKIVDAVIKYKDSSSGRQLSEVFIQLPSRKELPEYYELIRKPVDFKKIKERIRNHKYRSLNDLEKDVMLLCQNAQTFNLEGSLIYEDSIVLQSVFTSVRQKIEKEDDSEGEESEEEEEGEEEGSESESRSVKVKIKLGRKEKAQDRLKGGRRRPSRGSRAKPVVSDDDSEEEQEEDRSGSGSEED
Sequence of BRM (P51531 whole entry): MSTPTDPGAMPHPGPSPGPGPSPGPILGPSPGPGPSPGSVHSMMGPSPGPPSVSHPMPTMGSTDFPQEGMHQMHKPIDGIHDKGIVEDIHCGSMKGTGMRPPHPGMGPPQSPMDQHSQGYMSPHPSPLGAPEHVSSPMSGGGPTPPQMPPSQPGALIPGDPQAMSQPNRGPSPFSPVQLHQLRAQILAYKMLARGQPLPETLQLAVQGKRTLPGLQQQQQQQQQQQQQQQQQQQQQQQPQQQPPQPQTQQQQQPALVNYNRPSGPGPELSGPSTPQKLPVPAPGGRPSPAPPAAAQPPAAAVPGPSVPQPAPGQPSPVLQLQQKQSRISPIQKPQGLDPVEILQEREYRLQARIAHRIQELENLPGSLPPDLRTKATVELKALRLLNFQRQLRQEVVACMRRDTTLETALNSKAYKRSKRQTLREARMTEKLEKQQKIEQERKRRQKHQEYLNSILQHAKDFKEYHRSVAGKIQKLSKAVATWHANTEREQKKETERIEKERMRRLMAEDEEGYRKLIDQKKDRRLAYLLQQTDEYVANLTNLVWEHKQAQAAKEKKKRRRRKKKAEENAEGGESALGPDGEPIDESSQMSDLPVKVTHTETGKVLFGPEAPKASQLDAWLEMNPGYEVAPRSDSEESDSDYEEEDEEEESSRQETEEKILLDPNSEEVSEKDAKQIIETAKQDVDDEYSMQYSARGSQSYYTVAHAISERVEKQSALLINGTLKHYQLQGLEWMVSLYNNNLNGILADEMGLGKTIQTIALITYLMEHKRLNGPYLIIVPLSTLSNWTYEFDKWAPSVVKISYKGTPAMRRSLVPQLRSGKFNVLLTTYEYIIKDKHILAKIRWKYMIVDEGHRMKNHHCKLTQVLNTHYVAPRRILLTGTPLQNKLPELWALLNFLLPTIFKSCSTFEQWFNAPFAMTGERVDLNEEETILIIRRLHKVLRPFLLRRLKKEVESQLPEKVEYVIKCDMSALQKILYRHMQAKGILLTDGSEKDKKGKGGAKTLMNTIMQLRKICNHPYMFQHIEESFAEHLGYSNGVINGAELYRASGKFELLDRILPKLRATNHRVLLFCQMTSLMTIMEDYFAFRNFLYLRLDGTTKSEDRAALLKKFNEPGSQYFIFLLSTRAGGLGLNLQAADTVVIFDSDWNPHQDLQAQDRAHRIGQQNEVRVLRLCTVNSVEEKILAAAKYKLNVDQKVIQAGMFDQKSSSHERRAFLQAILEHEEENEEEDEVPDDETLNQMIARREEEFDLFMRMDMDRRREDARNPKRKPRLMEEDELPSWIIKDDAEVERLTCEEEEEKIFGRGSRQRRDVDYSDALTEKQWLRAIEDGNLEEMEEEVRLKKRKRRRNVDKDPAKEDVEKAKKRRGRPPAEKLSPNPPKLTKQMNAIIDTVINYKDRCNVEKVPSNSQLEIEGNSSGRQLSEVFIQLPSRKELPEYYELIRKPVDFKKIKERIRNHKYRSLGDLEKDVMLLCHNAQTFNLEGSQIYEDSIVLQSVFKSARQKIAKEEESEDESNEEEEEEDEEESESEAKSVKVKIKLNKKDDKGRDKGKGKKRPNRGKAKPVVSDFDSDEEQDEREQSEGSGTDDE

| SMILES | BRM Max % Inhibition (BRM) [%] | IC50 (BRM) [µM] | IC50 (BRG-1) [µM] | Emax (BRG-1) [%] |
| --- | --- | --- | --- | --- |
| C[C@@H]1CN(c2cccc(-c3csc(NC(=O)CNC(=O)c4ccc5c(c4)[C@H](C)COC5)n3)n2)C[C@H](C)O1 [Compound 321, (S)-N-(2-((4-(6-((cis)-2,6-dimethylmorpholino)pyridin-2-yl)thiazol-2-yl)amino)-2-oxoethyl)-4-methylisochromane-6-carboxamide] | >90 | < 0.1 | 0.1 to 1 | > 90 |
| C[C@@]1(C#N)COCc2ccc(C(=O)NCC(=O)Nc3nc(-c4cccc(F)c4)cs3)cc21 [Compound 322, (R)-4-cyano-N-(2-((4-(3-fluorophenyl)thiazol-2-yl)amino)-2-oxoethyl)-4-methylisochromane-6-carboxamide] | >95 | < 0.1 | 0.1 to 1 | > 95 |
| C[C@@]1(C#N)COCc2ccc(C(=O)NCC(=O)Nc3nc(-c4ccccc4)cs3)cc21 [Compound 323, (R)-4-cyano-4-methyl-N-(2-oxo-2-((4-phenylthiazol-2-yl)amino)ethyl)isochromane-6-carboxamide] | >95 | < 0.1 | 0.1 to 1 | > 95 |
| C[C@@H]1CN(c2cccc(-c3csc(NC(=O)CNC(=O)c4ccc5c(c4)C(O)(C(F)F)COC5)n3)c2)C[C@H](C)O1 (stereo partly drawn) [Compound 326, 4-(difluoromethyl)-N-(2-((4-(3-((cis)-2,6-dimethylmorpholino)phenyl)thiazol-2-yl)amino)-2-oxoethyl)-4-hydroxyisochromane-6-carboxamide] | >95 | < 0.1 | 0.1 to 1 | > 95 |
| C[C@@]1(C#N)COCc2ccc(C(=O)NCC(=O)Nc3nc(-c4cccc(N5CCC56COC6)c4)cs3)cc21 [Compound 328, (R)-N-(2-((4-(3-(6-oxa-1-azaspiro[3.3]heptan-1-yl)phenyl)thiazol-2-yl)amino)-2-oxoethyl)-4-cyano-4-methylisochromane-6-carboxamide] | >95 | < 0.1 | 0.1 to 1 | > 95 |
| C[C@@H]1CN(c2cccc(-c3csc(NC(=O)CNC(=O)c4ccc5c(c4)C(F)(C(F)F)COC5)n3)c2)C[C@H](C)O1 (stereo partly drawn) [Compound 329, 4-(difluoromethyl)-N-(2-((4-(3-((cis)-2,6-dimethylmorpholino)phenyl)thiazol-2-yl)amino)-2-oxoethyl)-4-fluoroisochromane-6-carboxamide] | >95 | < 0.1 | < 0.1 | > 95 |
| C[C@@]1(F)COCc2ccc(C(=O)NCC(=O)Nc3nc(-c4ccnc(C5(O)CC5)c4)cs3)cc21 [Compound 330, (S)-4-fluoro-N-(2-((4-(2-(1-hydroxycyclopropyl)pyridin-4-yl)thiazol-2-yl)amino)-2-oxoethyl)-4-methylisochromane-6-carboxamide] | >95 | < 0.1 | 0.1 to 1 | > 95 |
| C[C@@]1(F)COCc2ccc(C(=O)NCC(=O)Nc3nc(-c4cccc(C(F)F)n4)cs3)cc21 [Compound 331, (S)-N-(2-((4-(6-(difluoromethyl)pyridin-2-yl)thiazol-2-yl)amino)-2-oxoethyl)-4-fluoro-4-methylisochromane-6-carboxamide] | >95 | < 0.1 | 0.1 to 1 | > 95 |
| C[C@@]1(F)COCc2ccc(C(=O)NCC(=O)Nc3nc(-c4cccc(N5CCC5)c4)cs3)cc21 [Compound 332, (S)-N-(2-((4-(3-(azetidin-1-yl)phenyl)thiazol-2-yl)amino)-2-oxoethyl)-4-fluoro-4-methylisochromane-6-carboxamide] | >95 | < 0.1 | < 0.1 | > 95 |
| C[C@@]1(C#N)COCc2ccc(C(=O)NC3(C(=O)Nc4nc(-c5cccc(C(F)F)c5)cs4)CC3)cc21 [Compound 333, (R)-4-cyano-N-(1-((4-(3-(difluoromethyl)phenyl)thiazol-2-yl)carbamoyl)cyclopropyl)-4-methylisochromane-6-carboxamide] | >75 | 0.1 to 1 | 1 to 5 | > 75 |
| COc1cccc(-c2csc(NC(=O)CNC(=O)c3cc(OC)c4c(c3)[C@](C)(C#N)COC4)n2)c1 [Compound 335, (R)-4-cyano-8-methoxy-N-(2-((4-(3-methoxyphenyl)thiazol-2-yl)amino)-2-oxoethyl)-4-methylisochromane-6-carboxamide] | >90 | 0.1 to 1 | > 5 | > 90 |
| COc1cccc(-c2csc(NC(=O)C3(NC(=O)c4ccc5c(c4)[C@](C)(C#N)COC5)CC3(F)F)n2)c1 (stereo partly drawn) [Compound 336, (R)-4-cyano-N-(2,2-difluoro-1-((4-(3-methoxyphenyl)thiazol-2-yl)carbamoyl)cyclopropyl)-4-methylisochromane-6-carboxamide] | >85 | 0.1 to 1 | 1 to 5 | > 85 |
| COc1cc(F)cc(-c2csc(NC(=O)CNC(=O)c3ccc4c(c3)[C@](C)(F)COC4)n2)c1 [Compound 337, (S)-4-fluoro-N-(2-((4-(3-fluoro-5-methoxyphenyl)thiazol-2-yl)amino)-2-oxoethyl)-4-methylisochromane-6-carboxamide] | >95 | < 0.1 | < 0.1 | > 95 |
| C[C@@H]1CN(c2cccc(-c3csc(NC(=O)CNC(=O)c4ccc5c(c4)CCCCO5)n3)n2)C[C@H](C)O1 [Compound 338, N-(2-((4-(6-((cis)-2,6-dimethylmorpholino)pyridin-2-yl)thiazol-2-yl)amino)-2-oxoethyl)-2,3,4,5-tetrahydrobenzo[b]oxepine-7-carboxamide] | >90 | 0.1 to 1 | 0.1 to 1 | > 90 |
| C[C@@]1(C#N)COCc2ccc(C(=O)NCC(=O)Nc3nc(-c4cc(F)c5c(c4)OCO5)cs3)cc21 [Compound 339, (R)-4-cyano-N-(2-((4-(7-fluorobenzo[d][1,3]dioxol-5-yl)thiazol-2-yl)amino)-2-oxoethyl)-4-methylisochromane-6-carboxamide] | >95 | < 0.1 | < 0.1 | > 95 |

The next lines start with the values.

| BRM Max % Inhibition (BRM) [%] | IC50 (BRM) [µM] | IC50 (BRG-1) [µM] | Emax (BRG-1) [%] | SMILES |
| --- | --- | --- | --- | --- |
| >95 | < 0.1 | 0.1 to 1 | > 95 | CC1CC(c2cccc(-c3csc(NC(=O)CNC(=O)c4ccc5c(c4)[C@](C)(C#N)COC5)n3)c2)O1 (stereo partly drawn) [Compound 340, (R)-4-cyano-4-methyl-N-(2-((4-(3-(4-methyloxetan-2-yl)phenyl)thiazol-2-yl)amino)-2-oxoethyl)isochromane-6-carboxamide] |
| >95 | < 0.1 | 0.1 to 1 | > 95 | C[C@@]1(F)COCc2ccc(C(=O)NCC(=O)Nc3nc(-c4cccc(C(F)F)c4)cs3)cc21 [Compound 341, (S)-N-(2-((4-(3-(difluoromethyl)phenyl)thiazol-2-yl)amino)-2-oxoethyl)-4-fluoro-4-methylisochromane-6-carboxamide] |
| >95 | < 0.1 | 0.1 to 1 | > 95 | C[C@@]1(C#N)COCc2ccc(C(=O)NCC(=O)Nc3nc(-c4cccc(N5CC(F)(F)C5)c4)cs3)cc21 [Compound 342, (R)-4-cyano-N-(2-((4-(3-(3,3-difluoroazetidin-1-yl)phenyl)thiazol-2-yl)amino)-2-oxoethyl)-4-methylisochromane-6-carboxamide] |
| >95 | 0.1 to 1 | 0.1 to 1 | > 95 | O=C(CNC(=O)c1cccc(C2(C(F)F)COC2)c1)Nc1nc(-c2cccc(C(F)F)c2)cs1 [Compound 344, 3-(3-(difluoromethyl)oxetan-3-yl)-N-(2-((4-(3-(difluoromethyl)phenyl)thiazol-2-yl)amino)-2-oxoethyl)benzamide] |
| >95 | < 0.1 | 1 to 5 | > 95 | C[C@@H]1CN(c2cccc(-c3csc(NC(=O)CNC(=O)c4cccc(C5(C(F)F)CCOC5)c4)n3)c2)C[C@H](C)O1 (stereo partly drawn) [Compound 345, 3-(3-(difluoromethyl)tetrahydrofuran-3-yl)-N-(2-((4-(3-((cis)-2,6-dimethylmorpholino)phenyl)thiazol-2-yl)amino)-2-oxoethyl)benzamide] |
| >95 | < 0.1 | 0.1 to 1 | > 95 | CC1COCc2ccc(C(=O)NCC(=O)Nc3nc(-c4cccc(N5C[C@@H](C)O[C@@H](C)C5)n4)cs3)cc21 (stereo partly drawn) [Compound 346, N-(2-((4-(6-((cis)-2,6-dimethylmorpholino)pyridin-2-yl)thiazol-2-yl)amino)-2-oxoethyl)-4-methylisochromane-6-carboxamide] |
| >95 | < 0.1 | < 0.1 | > 95 | C[C@@H]1CN(c2cc(-c3csc(NC(=O)CNC(=O)c4ccc5c(c4)[C@](C)(C#N)COC5)n3)ccn2)C[C@H](C)O1 [Compound 347, (R)-4-cyano-N-(2-((4-(2-((cis)-2,6-dimethylmorpholino)pyridin-4-yl)thiazol-2-yl)amino)-2-oxoethyl)-4-methylisochromane-6-carboxamide] |
| >95 | < 0.1 | 0.1 to 1 | > 95 | C[C@@]1(C#N)COCc2ccc(C(=O)NCC(=O)Nc3nc(-c4cccc(N5CC6(CCO6)C5)c4)cs3)cc21 [Compound 348, (R)-N-(2-((4-(3-(1-oxa-6-azaspiro[3.3]heptan-6-yl)phenyl)thiazol-2-yl)amino)-2-oxoethyl)-4-cyano-4-methylisochromane-6-carboxamide] |
